Measured values as given in article PMC12186844 (ACS Chemical Neuroscience, 2025).
Where two headings read alike, the source gives them in different places.

Tests used:
[1] = target: SNAP-D2SR WT (Homo sapiens, UniProt P14416); assay: functional cAMP assay, BRET biosensor; format: cell-based
Method: (§1) Flp-In-CHO cells stably coexpressing the CAMYEL biosensor and DRs were plated into white 96-well CulturPlates (Revvity) and grown overnight. The cells were equilibrated in Hank’s balanced salt solution (HBSS) at 37 °C (or 25 °C when indicated) before starting the experiment. The cells were costimulated with the agonists and 10 μM forskolin for the indicated time frames when the BRET readings were captured. Coelenterazine (Nanolight Technology, AZ) was added at a final concentration of 5 μM at least 3 min prior to measurement. […] Net BRET was determined by subtraction of the vehicle control coadded with 10 μM forskolin.
(§2) Dose–response curves were fitted using the following three-parameter equation: response=bottom+top−bottom/1+10^(logEC50−log[A]) 5 where top and bottom represent the maximal and minimal asymptote of the dose response curve, [A] is the molar concentration of the agonist, and EC50 is the molar concentration of the agonist required to give a response half-way between bottom and top.

[2] = target: T1, SNAP-D2SR S121^3.39A (Homo sapiens, UniProt P14416, S121A); assay: functional cAMP assay, BRET biosensor; format: cell-based
T1 sequence (P14416 1-414 isoform P14416-2 S121A): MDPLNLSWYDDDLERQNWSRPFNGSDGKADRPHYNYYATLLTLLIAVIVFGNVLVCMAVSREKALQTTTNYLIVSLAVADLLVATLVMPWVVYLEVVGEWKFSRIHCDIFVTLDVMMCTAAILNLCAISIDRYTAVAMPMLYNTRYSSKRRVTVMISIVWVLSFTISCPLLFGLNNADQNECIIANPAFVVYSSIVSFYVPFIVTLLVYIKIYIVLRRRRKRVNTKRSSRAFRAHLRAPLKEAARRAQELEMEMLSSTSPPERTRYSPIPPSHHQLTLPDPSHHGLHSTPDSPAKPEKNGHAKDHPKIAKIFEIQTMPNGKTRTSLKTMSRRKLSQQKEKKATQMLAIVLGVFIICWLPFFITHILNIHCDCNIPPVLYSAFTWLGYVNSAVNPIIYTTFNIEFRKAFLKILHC
Method: as §1, §2

[3] = target: T2, SNAP-D2SR F353^6.44A (Homo sapiens, UniProt P14416, F382A); assay: functional cAMP assay, BRET biosensor; format: cell-based
T2 sequence (P14416 1-414 isoform P14416-2 F353A): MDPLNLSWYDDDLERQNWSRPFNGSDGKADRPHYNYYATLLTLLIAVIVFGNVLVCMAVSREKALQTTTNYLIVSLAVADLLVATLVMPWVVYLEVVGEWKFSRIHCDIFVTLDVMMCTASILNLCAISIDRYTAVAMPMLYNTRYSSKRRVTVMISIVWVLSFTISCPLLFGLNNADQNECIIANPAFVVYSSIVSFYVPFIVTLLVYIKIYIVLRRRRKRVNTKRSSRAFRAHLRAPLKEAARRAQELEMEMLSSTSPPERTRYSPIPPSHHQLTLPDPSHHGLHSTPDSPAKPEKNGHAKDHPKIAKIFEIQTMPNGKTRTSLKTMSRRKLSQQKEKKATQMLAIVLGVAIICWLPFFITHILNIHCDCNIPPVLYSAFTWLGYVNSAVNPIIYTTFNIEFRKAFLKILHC
Method: as §1, §2

[4] = target: SNAP-D2SR E95^2.65A (Homo sapiens, UniProt P14416, E95A); assay: functional cAMP assay, BRET biosensor; format: cell-based
Chain of SNAP-D2SR E95^2.65A (P14416 1-414 isoform P14416-2 E95A): as the sequence (P14416 1-414 isoform P14416-2 F353A) above, with E95A, A353F counted along it
Method: Flp-In-CHO cells stably coexpressing the CAMYEL biosensor and DRs were plated into white 96-well CulturPlates (Revvity) and grown overnight. The cells were equilibrated in Hank’s balanced salt solution (HBSS) at 37 °C (or 25 °C when indicated) before starting the experiment. The cells were costimulated with the agonists and 10 μM forskolin for the indicated time frames when the BRET readings were captured. Coelenterazine (Nanolight Technology, AZ) was added at a final concentration of 5 μM at least 3 min prior to measurement. […] Net BRET was determined by subtraction of the vehicle control coadded with 10 μM forskolin. For phenoxybenzamine alkylation experiments, the cells were treated with 0.1, 0.3, or 1 μM phenoxybenzamine (Sigma-Aldrich) diluted in HBSS and equilibrated at 37 °C for 30 min prior to the commencement of the assay.
as §2

[5] = target: SNAP-D2SR I73^2.43A (Homo sapiens, UniProt P14416, I73A); assay: functional cAMP assay, BRET biosensor; format: cell-based; design: expressed in transfected cells
Chain of SNAP-D2SR I73^2.43A (P14416 1-414 isoform P14416-2 I73A): as the sequence (P14416 1-414 isoform P14416-2 F353A) above, with I73A, A353F counted along it
Method: as §1, §2

[6] = target: SNAP-D2SR F404^8.50A (Homo sapiens, UniProt P14416, F433A); assay: cell membrane [3H]spiperone assay
Chain of SNAP-D2SR F404^8.50A (P14416 1-414 isoform P14416-2 F404A): as the sequence (P14416 1-414 isoform P14416-2 F353A) above, with A353F, F404A counted along it
Method: (§3) Flp-In-CHO cells stably expressing the wild-type or mutant DRs were grown to 90% confluence in 175 cm^2 cell culture flasks. The cells were harvested in PBS containing 2 mM EDTA and centrifuged at 300g for 3 min. The resulting pellet was resuspended in ice-cold assay buffer (20 mM HEPES, 100 mM NaCl, 6 mM MgCl2, 1 mM EGTA, and 1 mM EDTA, pH 7.4), and the centrifugation step was repeated. The intact cell pellet was then resuspended in assay buffer and homogenized using a Polytron homogenizer. After centrifugation (1000g, 10 min), the pellet was discarded, and the supernatant was recentrifuged at 30,000g for 1 h at 4 °C using a Sorvall Evolution RC ultracentrifuge (Thermo Scientific). The resulting pellet was resuspended in assay buffer and stored in 250 μL aliquots at −80 °C. Membrane protein concentration was determined using a Pierce’s BCA protein assay kit (Thermo Fisher, Melbourne).
(§4) [^3H]­Spiperone binding experiments using cell membranes were conducted in a 200 μL reaction volume in assay buffer (20 mM HEPES, 100 mM NaCl, 6 mM MgCl2, 1 mM EGTA, and 1 mM EDTA, pH 7.4) containing 100 μM GppNHp and 0.1% ascorbic acid in 96-well plates. […] In all cases, nonspecific binding was determined in the presence of 10 μM haloperidol. […] Filter bound radioactivity was detected as a chemiluminescence after the addition of MicroScint-20 (Revvity) in a MicroBeta plate counter (Revvity). […]

[7] = target: T2, SNAP-D2SR F353^6.44A; assay: cell membrane [3H]spiperone assay
Method: as §3, §4

[8] = target: SNAP-D2SR N393^7.49A (Homo sapiens, UniProt P14416, N422A); assay: cell membrane [3H]spiperone assay
Chain of SNAP-D2SR N393^7.49A (P14416 1-414 isoform P14416-2 N393A): as the sequence (P14416 1-414 isoform P14416-2 F353A) above, with A353F, N393A counted along it
Method: as §3, §4

[9] = target: D3R (Homo sapiens, UniProt P35462); assay: cell membrane [3H]raclopride binding assay
Chain of D3R (P35462 whole entry): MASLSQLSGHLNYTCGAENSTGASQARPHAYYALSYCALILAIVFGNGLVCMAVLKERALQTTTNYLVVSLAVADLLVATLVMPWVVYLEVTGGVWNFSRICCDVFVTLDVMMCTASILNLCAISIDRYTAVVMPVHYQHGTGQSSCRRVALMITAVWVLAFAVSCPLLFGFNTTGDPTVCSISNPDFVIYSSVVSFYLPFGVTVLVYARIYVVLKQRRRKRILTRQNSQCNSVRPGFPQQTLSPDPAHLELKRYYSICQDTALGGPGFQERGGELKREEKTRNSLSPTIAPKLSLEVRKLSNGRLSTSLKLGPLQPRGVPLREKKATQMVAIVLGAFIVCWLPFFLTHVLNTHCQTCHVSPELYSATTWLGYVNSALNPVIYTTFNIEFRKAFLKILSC
Method: as §3
[^3H]­Spiperone binding experiments using cell membranes were conducted in a 200 μL reaction volume in assay buffer (20 mM HEPES, 100 mM NaCl, 6 mM MgCl2, 1 mM EGTA, and 1 mM EDTA, pH 7.4) containing 100 μM GppNHp and 0.1% ascorbic acid in 96-well plates. […] In all cases, nonspecific binding was determined in the presence of 10 μM haloperidol. To obtain affinity estimates of unlabeled agonists, competition binding experiments were performed at equilibrium. […] After this incubation period, bound and free radioligands were separated by fast-flow filtration through UniFilter-96 GF/B plates using a MicroBeta FilterMate harvester (Revvity) followed by three washes with ice-cold 0.9% NaCl. Filter bound radioactivity was detected as a chemiluminescence after the addition of MicroScint-20 (Revvity) in a MicroBeta plate counter (Revvity).

[10] = read-out: D2 PAM2 KB (converted)

Chain of SNAP-D2SR WT (P14416 1-414 isoform P14416-2): as the sequence (P14416 1-414 isoform P14416-2 F353A) above, with A353F counted along it

## COc1cc(CO)c(F)cc1C(=O)n1ccc2c(F)cccc21 [D2 PAM2, [5-fluoro-4-(hydroxymethyl)-2-methoxyphenyl]-(4-fluoro-1H-indol-1-yl)methanone]
[1]
  D2 PAM2 log τ: 0.06 ± 0.05
  D2 PAM2 pKB: 5.02 ± 0.14
  D2 PAM2 τ: 1
[1]; S13
  Logτ: 0.14 ± 0.10
  pKB: 4.93 ± 0.22
  τ: 1.38
[1]; S13, read-out: KB
  Kb: 11.7 µM
[1]; S13, with DA
  Logαβ: 1.60 ± 0.25
  αβ: 39.8
[1]; Table 2, read-out: D2 PAM2 KB (converted)
  Kb: 9.5 µM
[1]; with DA
  D2 PAM2 log αβ: 1.25 ± 0.14
  D2 PAM2 αβ: 18
[2]
  D2 PAM2 log τ: –1.18 ± 0.15
  D2 PAM2 pKB: 4.83 ± 0.11
  D2 PAM2 τ: 0.06
[2]; [10]
  Kb: 15 µM
[2]; with DA
  D2 PAM2 log αβ: 1.14 ± 0.06
  D2 PAM2 αβ: 14
[3]
  D2 PAM2 log τ: –1.06 ± 0.21
  D2 PAM2 pKB: 5.13 ± 0.16
  D2 PAM2 τ: 0.09
[3]; [10]
  Kb: 7.4 µM
[3]; with DA
  D2 PAM2 log αβ: 1.06 ± 0.21
  D2 PAM2 αβ: 11
[4]
  Kb: 3.2 µM
  Logτ: -0.46 ± 0.07
  pKB: 5.49 ± 0.12
  τ: 0.35
[4]; with DA
  Logαβ: 1.07 ± 0.10
  αβ: 11.7
[5]
  D2 PAM2 log τ: –1.11 ± 0.16
  D2 PAM2 pKB: 5.24 ± 0.16
  D2 PAM2 τ: 0.08
[5]; cAMP
  fold decrease in cooperativity with DA: 2.8 fold
[5]; [10]
  Kb: 6 µM
[5]; with DA
  D2 PAM2 log αβ: 0.79 ± 0.07
  D2 PAM2 αβ: 6.1
[6]; shift of DA IC50
  fold shift + 10 μM PAM: 1.5 fold
[6]; shift of DA pIC50
  ΔpIC50 + 10 μM PAM: 0.19 ± 0.18
[7]; shift of DA IC50
  fold shift + 10 μM PAM: 1.3 fold
[7]; shift of DA pIC50
  ΔpIC50 + 10 μM PAM: 0.10 ± 0.12
[8]; shift of DA IC50
  fold shift + 10 μM PAM: 0.8 fold
[8]; shift of DA pIC50
  ΔpIC50 + 10 μM PAM: –0.08 ± 0.10
[9]
  Kb: 17 µM
  logα_DA: 0.98 ± 0.02
  logα_[3H]raclo: -0.14 ± 0.04
  pKB: 4.77 ± 0.14
  α_DA: 9.5
  α_[3H]raclo: 0.72
